Earlier results as cited in US6277963A, “Antibodies directed toward extracellular signal-related kinases” (Regeneron Pharmaceuticals, Inc., priority 1997, dated 2001).

Target: MAP2 kinase (partially purified enzyme) (Mus musculus, UniProt P63085)
Sequence (P63085 whole entry): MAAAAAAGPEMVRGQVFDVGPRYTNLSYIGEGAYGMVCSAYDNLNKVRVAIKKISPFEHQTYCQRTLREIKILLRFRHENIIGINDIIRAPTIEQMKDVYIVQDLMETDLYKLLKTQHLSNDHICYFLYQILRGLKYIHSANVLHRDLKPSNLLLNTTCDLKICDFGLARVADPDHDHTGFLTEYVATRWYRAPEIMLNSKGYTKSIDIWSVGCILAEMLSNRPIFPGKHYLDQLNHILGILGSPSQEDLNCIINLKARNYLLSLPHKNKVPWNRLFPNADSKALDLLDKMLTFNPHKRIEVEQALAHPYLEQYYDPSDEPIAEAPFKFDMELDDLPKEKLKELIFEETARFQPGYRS

Row | SMILES | Km (read-out: Km for ATP) | utilization of GTP
1 | Nc1ncnc2c1ncn2[C@@H]1O[C@H](COP(=O)(O)OP(=O)(O)OP(=O)(O)O)[C@@H](O)[C@H]1O [ATP] | 7 µM | –
2 | Nc1nc2c(ncn2[C@@H]2O[C@H](COP(=O)(O)OP(=O)(O)OP(=O)(O)O)[C@@H](O)[C@H]2O)c(=O)[nH]1 [GTP] | – | did not appear to utilize GTP
